One may read the pKi as the negative decadic logarithm of the Ki, by convention in mol/L. The pIC50 is −log10 of the IC50, conventionally taken in molar units. Higher therefore signals a low IC50.

pIC50, pKi: −log10 of the molar value. Square brackets hold non-standard residues; d marks the D form. Peptide text beside a SMILES is read from it. ξ: configuration not given here. Tic = O=C(O)[C@@H]1Cc2ccccc2CN1; ξD = NC(CC(=O)O)C(=O)O

Consider 8 compounds from patent US5716929A (Vertex Pharmaceuticals, Inc., priority 1995, dated 1998).

In experiment [1] the target is T1, interleukin-1β converting enzyme (ICE) (Homo sapiens, UniProt P29466).
T1 sequence (P29466 120-297 limits assumed): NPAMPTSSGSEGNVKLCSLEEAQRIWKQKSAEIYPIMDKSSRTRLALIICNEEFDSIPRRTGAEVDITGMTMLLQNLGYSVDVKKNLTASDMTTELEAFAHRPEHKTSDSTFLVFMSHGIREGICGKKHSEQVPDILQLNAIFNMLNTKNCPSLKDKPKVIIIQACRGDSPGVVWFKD
T1 sequence (P29466 317-404 limits assumed): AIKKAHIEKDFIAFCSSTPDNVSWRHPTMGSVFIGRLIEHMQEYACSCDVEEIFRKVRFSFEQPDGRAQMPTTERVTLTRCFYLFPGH
In words: Enzyme assay with UV-visible substrate (Succinyl-Tyr-Val-Ala-Asp-pNitroanilide). Format: biochemical. The method, then: 1. Enzyme assay with UV-visible substrate
This assay is run using an Succinyl-Tyr-Val-Ala-Asp-pNitroanilide substrate (SEQ ID NO: 1). Synthesis of analogous substrates is described by L. A. Reiter (Int. J. Peptide Protein Res. 43, 87-96 (1994)). The assay mixture contains: […]
The visible ICE assay is run in a 96-well microtiter plate. Buffer, ICE and DMSO (if inhibitor is present) are added to the wells in the order listed. The components are left to incubate at room temperature for 15 minutes starting at the time that all components are present in all wells. The microtiter plate reader is set to incubate at 37° C. After the 15 minute incubation, substrate is added directly to the wells and the reaction is monitored by following the release of the chromophore (pNA) at 405-603 nm at 37° C. for 20 minutes. A linear fit of the data is performed and the rate is calculated in mOD/min. DMSO is only present during experiments involving inhibitors, buffer is used to make up the volume to 100 μl in the other experiments.
(§1) For determination of enzyme inhibition constants (Ki) or the mode of inhibition (competitive, uncompetitive or noncompetitive), the rate data determined in the enzyme assays at varying inhibitor concentrations are computer-fit to standard enzyme kinetic equations (see I. H. Segel, Enzyme Kinetics, Wiley-Interscience, 1975).

The subject of experiment [2] is mature IL-1β, Human Peripheral Blood Mononuclear Cells (PBMC). In words: Cell assay: IL-1β assay with human PBMC or enriched adherent mononuclear cells. Format: cell-based. The note with it: LPS-stimulated cells, mature IL-1β by ELISA. The source says:
IL-1β Assay with a Mixed Population of Human Peripheral Blood Mononuclear Cells (PBMC) or Enriched Adherent Mononuclear Cells
Processing of pre-IL-1β by ICE can be measured in cell culture using a variety of cell sources. Human PBMC obtained from healthy donors provides a mixed population of lymphocyte subtypes and mononuclear cells that produce a spectrum of interleukins and cytokines in response to many classes of physiological stimulators. Adherent mononuclear cells from PBMC provides an enriched source of normal monocytes for selective studies of cytokine production by activated cells.
An initial dilution series of test compound in DMSO or ethanol is prepared, with a subsequent dilution into RPMI-10% FBS media (containing 2 mM L-glutamine, 10 mM HEPES, 50 U and 50 ug/ml pen/strep) respectively to yield drugs at 4× the final test concentration containing 0.4% DMSO or 0.4% ethanol. The final concentration of DMSO is 0.1% for all drug dilutions. A concentration titration which brackets the apparent Ki for a test compound determined in an ICE inhibition assay is generally used for the primary compound screen.
We generally test 5-6 compound dilutions and have performed the cellular component of the assay in duplicate, with duplicate ELISA determinations on each cell culture supernatant.
Buffy coat cells isolated from one pint human blood (yielding 40-45 ml final volume plasma plus cells) are diluted with media to 80 ml and LeukoPREP separation tubes (Becton Dickinson) are each overlaid with 10 ml of cell suspension. After 15 min centrifugation at 1500-1800×g, the plasma/media layer is aspirated and then the mononuclear cell layer is collected with a Pasteur pipette and transferred to a 15 ml conical centrifuge tube (Corning). Media is added to bring the volume to 15 ml, gently mix the cells by inversion and centrifuge at 300×g for 15 min. Resuspend the PBMC pellet in a small volume of media, count cells and adjust to 6×10^6 cells/ml.
For the cellular assay, add 1.0 ml of the cell suspension to each well of a 24-well flat bottom tissue culture plate (Corning), 0.5 ml test compound dilution and 0.5 ml LPS solution (Sigma #L-3012; 20 ng/ml solution prepared in complete RPMI media; final LPS concentration 5 ng/ml). The 0.5 ml additions of test compound and LPS are usually sufficient to mix the contents of the wells. Three control mixtures are run per experiment, with either LPS alone, solvent vehicle control, and/or additional media to adjust the final culture volume to 2.0 ml. The cell cultures are incubated for 16-18 hr at 37° C. in the presence of 5% CO2.
At the end of the incubation period, cells are harvested and transferred to 15 ml conical centrifuge tubes. After centrifugation for 10 min at 200×g, supernatants are harvested and transferred to 1.5 ml Eppendorf tubes. It may be noted that the cell pellet may be utilized for a biochemical evaluation of pre-IL-1β and/or mature IL-1β content in cytosol extracts by western blotting or ELISA with pre-IL-1β specific antisera.
PBMC are isolated and prepared as described above. Media (1.0 ml) is first added to wells followed by 0.5 ml of the PBMC suspension. After a one hour incubation, plates are gently shaken and nonadherent cells aspirated from each well. Wells are then gently washed three times with 1.0 ml of media and final resuspended in 1.0 ml media. The enrichment for adherent cells generally yields 2.5-3.0×10^5 cells per well. […]

Experiment [3] concerns the target T1, interleukin-1β converting enzyme (ICE). In words: Enzyme assay with fluorescent substrate (Acetyl-Tyr-Val-Ala-Asp-AMC). Format: biochemical. Conditions: Example 2 table, read-out: Fluorescence Ki. The method, then: 2. Enzyme Assay with Fluorescent Substrate
This assay is run essentially according to Thornberry et al. (Nature 356: 768-774 (1992)), using substrate 17 referenced in that article. The substrate is: Acetyl-Tyr-Val-Ala-Asp-amino-4-methylcoumarin (AMC) (SEQ ID NO: 2). The following components are mixed: […]
The assay is run in a 96 well microtiter plate. Buffer and ICE are added to the wells. The components are left to incubate at 37° C. for 15 minutes in a temperature-controlled wellplate. After the 15 minute incubation, the reaction is started by adding substrate directly to the wells and the reaction is monitored @37° C. for 30 minutes by following the release of the AMC fluorophore using an excitation wavelength for 380 nm and an emission wavelength of 460 nm. A linear fit of the data for each well is performed and a rate is determined in fluorescence units per second.
as §1

Setting [4] is: Homo sapiens, PBMC, Example 2 table.

`COc1cccc2nc(C(=O)[C@H](CC(=O)O)NC(=O)[C@@H]3C[C@H](Oc4ccccc4)CN3C(=O)[C@@H](NC(C)=O)C(C)C)oc12` [Compound 86, N-Acetyl-(S)-valinyl-(4-(S)-phenoxy)prolinyl-3(S)-amino-4-(7-methoxybenzoxazol-2-yl)-4-oxo-butanoic acid] had a pKi in experiment [1] (Example 6 table) of 6.76. The same compound showed a negative-log IC50 (pIC50) in experiment [2] (Example 6 table) of 5.40.

Regarding `O=C(O)C[C@H](NC(=O)CN1C(=O)[C@@H](NC(=O)CCc2ccccc2)CN(C(=O)CCc2ccccc2)c2ccccc21)C(=O)c1ncc(-c2c(Cl)cccc2Cl)o1` [Compound 108c, 4-[5-(2,6-Dichlorophenyl)oxazol-2-yl]-4-oxo-3(S)-{2-[2-oxo-5-(3-phenylpropionyl)-3(S)-(3-phenylpropionylamino)-2,3,4,5-tetrahydrobenzo[b][1,4]diazepin-1-yl]-acetylamino}butyric acid], in experiment [1] (Example 6 table), the negative logarithm of the Ki (pKi) is 6.37.

As for `O=CC(CC(=O)O)NC(=O)CN1C(=O)C(NC(=O)OCc2ccccc2)CN(Cc2ccccc2)C(=O)C1Cc1ccccc1` (stereo not shown) [Compound 121, 3-{2-[2,4-Dibenzyl-3,7-dioxo-6-(N-benzyloxycarbonylamino)-[1,4]diazepan-1-yl]-acetylamino}-4-oxo-butyric acid], the negative-log Ki (pKi) in experiment [1] (Example 6 table) is 5.37.

As to `CC(=O)N[C@@H](Cc1ccc(O)cc1)C(=O)N[C@H](C(=O)N1CC(OCc2ccccc2)C[C@H]1C(=O)NC(C=O)CC(=O)O)C(C)C` (stereo partly shown) [Compound K, N-[N-Acetyl-tyrosinyl-valinyl-(4-benzyloxy)prolinyl]-3-amino-4-oxobutanoicacid], the pKi is 8.00 in experiment [1] (Example 2 table) and 8.70 in experiment [3]. This compound also gave a negative logarithm of the IC50 (pIC50) in experiment [2] (Example 2 table) of 4.96 to 5.70.

`CC(=O)N[C@@H](Cc1ccc(O)cc1)C(=O)N[C@H](C(=O)N1CC(Oc2ccccc2)C[C@H]1C(=O)NC(C=O)CC(=O)O)C(C)C` (stereo partly shown) [I, N-(N-Acetyl-tyrosinyl-valinyl-(4-phenoxyprolinyl))-3-amino-4-oxobutanoicacid]: the pIC50 in experiment [2] (setting [4]) is 5.59.

In turn, `CC(=O)N[C@@H](Cc1ccc(O)cc1)C(=O)N[C@H](C(=O)N1CC(O)C[C@H]1C(=O)NC(C=O)CC(=O)O)C(C)C` (stereo partly shown) [J, N-[N-Acetyl-tyrosinyl-valinyl-(4-hydroxyprolinyl)]-3-amino-4-oxobutanoicacid] showed a pIC50 in experiment [2] (setting [4]) of 5.15 to 5.30.

`CC(=O)N[C@@H](Cc1ccc(O)cc1)C(=O)N[C@H](C(=O)N1Cc2ccccc2C[C@H]1C(=O)NC(C=O)CC(=O)O)C(C)C` (stereo partly drawn) [L, N-[2-(N-Acetyl-tyrosinyl-valinyl)-(S)-1,2,3,4-tetrahydroisoquinoline-3-carbonyl]-3-amino-oxobutanoic acid] (Ac-YV[Tic][ξD]-aldehyde): in experiment [1] (Example 2 table), the pKi is 7.85.

As for “N-(N-Acetyl-tyrosinyl-valinyl-pipecolyl)-3-amino-4-oxobutanoic acid [H]”, the results for the negative logarithm of the Ki (pKi) in experiment [1] (Example 2 table) and in experiment [3] were 7.64 and 8.33, respectively. Further, the pIC50 in experiment [2] (Example 2 table) is 4.96 to 5.22.
